Data as given in patent US10709784B2, “Metal chelating compositions and methods for controlling the growth or activities of a living cell or organism” (CHELATION PARTNERS INCORPORATED, priority 2011, dated 2020).
Converted amounts (≈) assume the structure as drawn. Like-named read-outs stand apart in the source and are kept apart here.

How the values were obtained:
Type in all cases: cell-based
[1] = system: Escherichia coli ATCC #25922; test: Antibiotic MIC in untreated versus iron-extracted RPMI
From the text: (§1) Test microorganisms included Pseudomonas aeruginosa strain PA01, Escherichia coli ATCC #25922 and Staphylococcus aureus ATCC #29213.

[2] = system: Pseudomonas aeruginosa strain PA01; test: as above
From the text: as §1

[3] = system: Staphylococcus aureus ATCC #29213; test: as above
[4] = system: Candida albicans ATCC 10231; test: Growth with chelating materials of different molecular weight, 84 hours; settings: 30° C., defined medium without added iron, FIG. 8
Procedure: Candida albicans ATCC 10231 was tested for its sensitivities to: the medical chelator deferiprone (#1 in the graph of FIG. 8) (a product of Apotex Pharmaceuticals); the precursor chemicals used for the preparation of soluble chelating compositions of the present invention, including 3-hydroxy-2-methyl-4-pyrone (#2 in the graph of FIG. 8), AHMP as from Example 1 (#3 in the graph of FIG. 8) and MAHMP as from Example 2 (#4 in the graph of FIG. 8) and also the soluble chelating composition as from Example 4 (#5 in the graph of FIG. 8). The yeast was grown in defined medium as for Example 18 with no additional added iron (i.e., the only but adequate Fe available for the yeast was contributed from being present along with the other added medium components). Growth of the yeast in the defined media with added test chelating materials was compared to control samples that had not received any of the chelating materials following 84 hours of incubation and growth at 30° C. […] These chelators being internalized by the yeast were incapable of restricting iron supply to the yeast cells. […] Thus, low molecular weight chelators such as deferiprone and similar compounds permitted growth while the soluble chelating composition that contained functional groups similar to deferiprone but was a molecular weight higher than 1500 Daltons restricted growth, eventhough the various compounds tested were each capable of binding iron through their pyridinone functionality.

[5] = system: antibiotic resistant strains of Staphylococcus aureus; test: NCCLS MIC antibiotic sensitivity with added chelator; settings: for MIC penicillin: Strain WBG8701
Procedure: Sensitive or antibiotic resistant strains of Staphylococcus aureus (S. aureus) were grown on blood agar plates overnight at 37° C. Four to six individual colonies of each strain were harvested into Mueller-Hinton broth (MHB) and incubated at 37° C. until they reached an optical density equal to or exceeding a 0.5 McFarland standard. The culture was diluted with MHB to equal 0.5 McFarland standard. Dilutions (10^−1) of these standards were used for inocula. Various stains of antibiotic resistant Staphylococcus aureus were used for these tests as shown in the results below. It should be appreciated that growing the bacterial strains on blood agar and then in MHB ensured the inoculum was not restricted for iron prior to the test but rather the bacterial cells were with ample endogenous iron supply.
A range of two-fold dilutions of a test antibiotic was prepared in MHB. […] Soluble and insoluble chelating compositions, as prepared in Example 6 or Example 5, or the free iron chelating agent deferiprone were added to the antibiotic containing tubes at known concentrations of iron binding capacity (referred to as iron binding equivalents) to allow direct comparison of the different compositions or free chelator. The final volume per tube was 500 μl. Bacterial inoculum, 25 μl of the 10^−1 dilutions of the appropriate S. aureus strain was added to each tube. The tubes were incubated at an angle on a reciprocating shaker at 37° C. overnight and results were scored as growth based on turbidity or no growth (lack of turbidity). The Minimum Inhibitory Concentration (MIC) for the antibiotic was determined from the growth results.
A series of tests was set up as in Example 15 with various antibiotic anti-cellular agents. The clinically isolated strains were obtained from the culture collection of Warren Grubb, Curtin University, Perth, Australia.
A series of antibiotic sensitivity tests was set up as in example 16 utilizing the soluble chelating compositions as prepared in Example 6. Separate test series with different clinically isolated Staphylococcus aureus strains, as obtained from the culture collection of Warren Grubb, Curtin University, Perth, Australia, and various antibiotics were employed but for each series a control test comprising addition of iron sufficient to supply two times the chelating capacity of the supplied chelating composition was also included.

[6] = system: Candida albicans ATCC 10231; test: Nystatin MIC (80% growth inhibition) with soluble chelator
Procedure: Candida albicans ATCC 10231, yeast cells, as grown in defined medium with no additional added Fe as in example 18 and example 19, were tested in the same media for their sensitivities to nystatin, an antifungal agent as proto-typical of the class of polyene antibiotics that are commonly used to control fungal growth and pathogenesis in humans and with nystatin plus the soluble chelating composition, as prepared in example 4. Nystatin as typical of the polyene class of antifungal agents causes membrane damage as part of its mechanism of anti-fungal activity.

[7] = system: Candida albicans ATCC 10231; test: Fluorocytosine MIC (80% growth inhibition) with soluble chelator
Procedure: Candida albicans ATCC 10231, yeast cells, as grown in defined medium with no additional added Fe as in example 18 and example 19, were tested in the same media for their sensitivities to 5-fluorocytosine, as a proto-typical example of the class of […] that are commonly used to control fungal and cancer cell growth in humans and with fluorocytosine plus the soluble chelating composition, as prepared in example 4.

[8] = system: Candida albicans ATCC 10231; test: Preservative agent MIC (80% inhibition) challenge test with soluble chelator
[9] = Escherichia coli, ATCC25922, Treated RPMI + 0.009 μM Fe, read-out: MIC
[10] = Escherichia coli, ATCC25922, Untreated RPMI 0.11 μM Fe, read-out: MIC
[11] = Pseudomonas aeruginosa, PA01, Treated RPMI + 0.09 μM Fe, read-out: MIC
[12] = Pseudomonas aeruginosa, PA01, Untreated RPMI 0.11 μM Fe, read-out: MIC
[13] = Staphylococcus aureus, ATCC29213, Treated RPMI + 0.004 μM Fe, read-out: MIC
[14] = Staphylococcus aureus, ATCC29213, Untreated RPMI 0.11 μM Fe, read-out: MIC
[15] = strain WBG4340, No Chelator Added (control)
[16] = strain WBG525, No Chelator Added (control)
[17] = strain WBG525, plus Soluble Chelating Composition (Example 6) 1.1 mM Fe binding equivalents, * slight growth <5% of control
[18] = strain WBG525, plus Soluble Chelating Composition (Example 6) 2.2 mM Fe binding equivalents, * slight growth <5% of control

CC1(C)S[C@@H]2[C@H](NC(=O)[C@H](N)c3ccccc3)C(=O)N2[C@H]1C(=O)O [Ampicillin]
MIC [1, 9]: 4 µg/mL | MIC [1, 10]: 4 µg/mL (≈ 11.4 µM) | MIC [2, 11]: > 512 µg/mL | MIC [2, 12]: > 512 µg/mL | MIC [3, 13]: 0.25 µg/mL | MIC [3, 14]: 1 µg/mL (≈ 2.86 µM)

C/C(=C\C(=O)OCCCCCCCCC(=O)O)C[C@@H]1OC[C@H](C[C@@H]2O[C@H]2[C@@H](C)[C@H](C)O)[C@@H](O)[C@H]1O [Mupirocin]
MIC [1, 9]: 64 µg/mL | MIC [1, 10]: 128 µg/mL (≈ 256 µM) | MIC [2, 11]: > 512 µg/mL | MIC [2, 12]: > 512 µg/mL | MIC [3, 13]: 0.0156 µg/mL | MIC [3, 14]: 0.0625 µg/mL (≈ 0.125 µM)

C=C(C)C(=O)NCCn1ccc(=O)c(O)c1C [MAHMP, 3-hydroxy-1-(β-methacrylamidoethyl)-2-methyl-4(1H)-pyridinone]
growth of the yeast compared to control [4]: did not substantially restrict growth

CC(=O)O[C@H]1C[C@@]2(C)[C@@H](C[C@@H](O)[C@H]3[C@@]4(C)CC[C@@H](O)[C@@H](C)[C@@H]4CC[C@@]32C)/C1=C(\CCC=C(C)C)C(=O)O [Fusidic acid]
MIC [1, 9]: > 512 µg/mL | MIC [1, 10]: > 512 µg/mL | MIC [2, 11]: > 512 µg/mL | MIC [2, 12]: > 512 µg/mL | MIC [3, 13]: 0.0625 µg/mL | MIC [3, 14]: 0.25 µg/mL (≈ 0.484 µM)

O=C(O)c1cn(C2CC2)c2cc(N3CCNCC3)c(F)cc2c1=O [Ciprofloxacin]
MIC [1, 9]: 0.008 µg/mL | MIC [1, 10]: 0.0078 µg/mL (≈ 0.0235 µM) | MIC [2, 11]: 1 µg/mL | MIC [2, 12]: 4 µg/mL (≈ 12.1 µM) | MIC [3, 13]: 0.25 µg/mL | MIC [3, 14]: 0.5 µg/mL (≈ 1.51 µM)

Neomycin
MIC (100% inhibition) antibiotic [5, 15]: 1280 µg/mL | MIC (100% inhibition) antibiotic ([5]; strain WBG4340, plus Soluble Chelating Composition (Example 6) 1.1 mM): 160 µg/mL | MIC (100% inhibition) antibiotic ([5]; strain WBG4340, plus Soluble Chelating Composition (Example 6) 2.2 mM): 80 µg/mL | MIC ([1]; Treated RPMI + 0.009 μM Fe): 2 µg/mL | MIC ([1]; Untreated RPMI 0.11 μM Fe): 2 µg/mL | MIC ([2]; Treated RPMI + 0.09 μM Fe): 16 µg/mL | MIC ([2]; Untreated RPMI 0.11 μM Fe): 32 µg/mL | MIC ([3]; Treated RPMI + 0.004 μM Fe): 1 µg/mL | MIC ([3]; Untreated RPMI 0.11 μM Fe): 1 µg/mL

C[C@@H]1[C@H](O)[C@@H](C)/C=C/C=C/CC/C=C/C=C/C=C/C=C/C(O[C@H]2O[C@H](C)[C@@H](O)[C@H](N)[C@@H]2O)CC2O[C@](O)(CC(O)C(O)CCC(O)CC(O)CC(O)CC(=O)O[C@H]1C)CC(O)C2C(=O)O (stereo partly shown) [Nystatin]
Nystatin MIC ([6]; Nystatin alone, 4 d): 0.23 µg/mL | Nystatin MIC ([6]; Nystatin alone, 10 d): 3.8 µg/mL | Nystatin MIC ([6]; Nystatin alone, 21 d): 7.5 µg/mL | Nystatin MIC ([6]; plus 25 μg/ml soluble chelator (example 4), 4 d): <0.12 µg/mL | Nystatin MIC ([6]; plus 25 μg/ml soluble chelator (example 4), 10 d): 0.12 µg/mL | Nystatin MIC ([6]; plus 25 μg/ml soluble chelator (example 4), 21 d): 0.47 µg/mL

NC[C@H]1O[C@H](O[C@H]2[C@H](O)[C@@H](O[C@H]3O[C@H](CO)[C@@H](O)[C@H](N)[C@H]3O)[C@H](N)C[C@@H]2N)[C@H](O)[C@@H](O)[C@@H]1O [Kanamycin]
MIC (100% inhibition) antibiotic [5, 16]: 320 µg/mL (≈ 660 µM) | MIC (100% inhibition) antibiotic [5, 17]: 20 µg/mL | MIC (100% inhibition) antibiotic [5, 18]: 20 µg/mL

CN(C)[C@@H]1C(O)=C(C(N)=O)C(=O)[C@@]2(O)C(O)=C3C(=O)c4c(O)cccc4[C@@](C)(O)[C@H]3C[C@@H]12 [Tetracycline]
MIC (100% inhibition) antibiotic [5, 15]: 40 µg/mL (≈ 90 µM)

Nc1nc(=O)[nH]cc1F [Fluorocytosine, 5-fluorocytosine]
MIC ([7]; ATCC10231, 96 h, Fluorocytosine alone, 4 d): 0.025 µg/mL (≈ 0.194 µM) | MIC ([7]; ATCC10231, 96 h, plus 25 μg/ml soluble chelator (example 4), 4 d): < 0.003 µg/mL | MIC ([7]; ATCC10231, 240 h, Fluorocytosine alone, 10 d): 0.05 µg/mL (≈ 0.387 µM) | MIC ([7]; ATCC10231, 240 h, plus 25 μg/ml soluble chelator (example 4), 10 d): 0.012 µg/mL | MIC ([7]; ATCC10231, 504 h, Fluorocytosine alone, 21 d): 0.05 µg/mL (≈ 0.387 µM) | MIC ([7]; ATCC10231, 504 h, plus 25 μg/ml soluble chelator (example 4), 21 d): 0.012 µg/mL

[H]/N=C(/N)N[C@H]1[C@H](O)[C@@H](O)[C@H](O[C@@H]2O[C@@H](C)[C@](O)(C=O)[C@H]2O[C@@H]2O[C@@H](CO)[C@H](O)[C@@H](O)[C@@H]2NC)[C@@H](N/C(N)=N\[H])[C@@H]1O [Streptomycin]
MIC ([5]; Staphylococcus aureus, strain WBG525, no chelator added (control), read-out: MIC Streptomycin): > 640 µg/mL | MIC (100% inhibition) antibiotic [5, 16]: >640 µg/mL | MIC (100% inhibition) antibiotic [5, 17]: 640* μg/ml | MIC (100% inhibition) antibiotic [5, 18]: 160* μg/ml

Gentamcin
MIC (100% inhibition) antibiotic ([5]; strain WBG1320, No Chelator Added (control), * slight growth <5% of control): 320* μg/ml | MIC (100% inhibition) antibiotic ([5]; strain WBG1320, plus Soluble Chelating Composition (Example 6) 1.1 mM, * slight growth <5% of control): 40* μg/ml | MIC (100% inhibition) antibiotic ([5]; strain WBG1320, plus Soluble Chelating Composition (Example 6) 2.2 mM, * slight growth <5% of control): 20* μg/ml

CC[C@H]1OC(=O)[C@H](C)[C@@H](O[C@H]2C[C@@](C)(OC)[C@@H](O)[C@H](C)O2)[C@H](C)[C@@H](O[C@@H]2O[C@H](C)C[C@H](N(C)C)[C@H]2O)[C@](C)(OC)C[C@@H](C)C(=O)[C@H](C)[C@@H](O)[C@]1(C)O [Clarithromycin]
MIC [1, 9]: 16 µg/mL | MIC [1, 10]: > 512 µg/mL | MIC [2, 11]: > 512 µg/mL | MIC [2, 12]: > 512 µg/mL | MIC [3, 14]: 1 µg/mL (≈ 1.34 µM)

COC(=O)c1ccc(O)cc1 [Paraben, methyl paraben]
MIC ([8]; ATCC10231, 48 h, read-out: Sorbate or Paraben MIC, preservative alone, 2 days): 500 µg/mL (≈ 3290 µM) | MIC ([8]; ATCC10231, 240 h, read-out: Sorbate or Paraben MIC, preservative alone, 10 days): 1000 µg/mL (≈ 6570 µM)

penicillin
MIC penicillin ([5]; no chelator): 640 µg/mL | MIC penicillin ([5]; plus 4.4 mM Fe binding equivalents soluble chelating composition (example 6)): 320 µg/mL | MIC penicillin ([5]; plus iron-loaded chelating composition): did not lower the MIC
